Reference: PubChem BioAssay AID608 (Sanford-Burnham Center for Chemical Genomics, 2007)
The source made the active and inactive calls. How the calls were made is not given here.

Molecular target: Peptidyl-prolyl cis-trans isomerase FKBP1A (Homo sapiens) (UniProt P62942)
Assay: small-molecule binding to FKBP12 – biophysical, NMR detection (AID 608)
Details: purified FKBP12

Sequence of Peptidyl-prolyl cis-trans isomerase FKBP1A (Homo sapiens) (P62942 whole entry, looked up): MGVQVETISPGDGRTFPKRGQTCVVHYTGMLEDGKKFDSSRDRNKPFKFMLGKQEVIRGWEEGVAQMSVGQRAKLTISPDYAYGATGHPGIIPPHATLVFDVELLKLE

| Structure (SMILES) | Kd |
| --- | --- |
| Cc1c(CCO)c(=O)n2c([nH]c3ccccc32)c1C#N | > 4 mM (inactive) |
| COC(=O)Cc1cc(=O)n(-c2ccccc2)[nH]1 | > 4 mM (inactive) |
| CCNC(=O)CC1Nc2ccccc2NC1=O (stereo unspecified) | > 4 mM (inactive) |
| O=C1CCCC(=O)N1c1ccc(O)cc1 | > 4 mM (inactive) |
| CC(=O)NC(O)C(=O)c1ccccc1 (stereo unspecified) | > 4 mM (inactive) |
| Cc1cccc(CSc2nncc(=O)[nH]2)c1 | > 4 mM (inactive) |
| Fc1ccc(NC2=NCCS2)cc1Cl | > 4 mM (inactive) |
| O=C1NC(=S)N/C1=C/c1ccsc1 | > 4 mM (inactive) |
| Cc1nnc(SCc2ccon2)n1-c1ccccc1 | 0.0385 mM |
| O=C1Cn2c(nc3ccccc32)N1c1ccccc1F | > 4 mM (inactive) |
| COC(=O)C1=CCCN(C)C1 | > 4 mM (inactive) |
| CC1(C)Cc2nc3[nH]c(=S)[nH]c(=O)c3cc2CO1 | > 4 mM (inactive) |
| Cc1ccc(/C=N/n2c(C)nnc2C)cc1 | > 4 mM (inactive) |
| O=C1NC(=O)C(=Cc2cccs2)C(=O)N1 | > 4 mM (inactive) |
| CP(C)(=O)c1cccc(C(=O)O)c1 | > 4 mM (inactive) |
| O=C1O[C@H](C(O)CO)C(O)=C1O (stereo partly specified) | > 4 mM (inactive) |
| CN1CCN(CC(O)c2ccccc2)CC1 (stereo unspecified) | > 4 mM (inactive) |
| O=C1CCC(C(=O)NCc2cccnc2)N1 (stereo unspecified) | > 4 mM (inactive) |
| c1ccc2c(c1)nnn2C1CCNCC1 | > 4 mM (inactive) |
| Cc1cc(=O)n(C(N)=S)[nH]1 | > 4 mM (inactive) |
| COc1ccc2c(c1OC)OC[C@@H](c1ccc(OC)c(OC)c1OC)C2 | > 4 mM (inactive) |
| OCC1CCCC1O (stereo unspecified) | > 4 mM (inactive) |
| NC1=NC(=O)/C(=C/c2cccs2)S1 | > 4 mM (inactive) |
| N#Cc1cc2ccccc2nc1N | > 4 mM (inactive) |
| C[C@]12CCC3C(CC[C@H]4C[C@@H](O)CC[C@]34C)C1CCC2=O (stereo partly specified) | > 4 mM (inactive) |

| Structure (SMILES) | Kd |
| --- | --- |
| CN1CCc2c(sc(N)c2C#N)C1 | > 4 mM (inactive) |
| COc1ccccc1-c1nc(=S)[nH][nH]1 | > 4 mM (inactive) |
| NCc1ccc2sccc2c1 | > 4 mM (inactive) |
| COc1ccc2c(c1)OCC(Cc1ccc(OC)c(OC)c1)C2=O (stereo unspecified) | > 4 mM (inactive) |
| COCC(=O)Nc1ccc(F)cc1F | > 4 mM (inactive) |
| CC1=NN(c2ccc(C)cc2)C(=O)C1 | > 4 mM (inactive) |
| NC(=O)Cn1cnc(-c2ccc(F)cc2)c1 | > 4 mM (inactive) |
| O=C(NCCO)NC(=S)c1ccccc1 | > 4 mM (inactive) |
| Cc1cccc(-c2nnc(-c3ccc(N)cc3)o2)c1 | > 4 mM (inactive) |
| O=C(O)C1CCN(C(=O)c2cccs2)CC1 | > 4 mM (inactive) |
| CC1(O)CC2C=CC1C2 (stereo unspecified) | > 4 mM (inactive) |
| COc1ccc(-c2coc3cc(O)ccc3c2=O)c(O)c1O | > 4 mM (inactive) |
| O=C(Nn1cnnc1)c1csc2ccccc12 | > 4 mM (inactive) |
| COc1cc(OC)c2c(=O)c(OC)c(-c3ccc(OC)c(OC)c3)oc2c1 | > 4 mM (inactive) |
| CCOC(=O)c1cc(C)[nH]n1 | > 4 mM (inactive) |
| CC(C)C(=O)NCC(c1ccco1)N1CCOCC1 (stereo unspecified) | > 4 mM (inactive) |
| Cn1c(NCC(=O)O)nc2c1c(=O)[nH]c(=O)n2C | > 4 mM (inactive) |
| CC1(C)C=CC(=O)[C@@]2(C)C1CC(=O)[C@]1(C)C2CC[C@@]2(C)[C@H](c3ccoc3)OC(=O)C3OC321 (stereo partly specified) | > 4 mM (inactive) |
| Nc1ccc(F)cc1F | > 4 mM (inactive) |
| COc1cc2c(cc1OC)[C@@]13CCN4CC5=CCOC6CC(=O)N2C1[C@H]6[C@H]5C[C@H]43 (stereo partly specified) | > 4 mM (inactive) |
| O=C(CSc1ncccn1)Nc1nccs1 | > 4 mM (inactive) |
| CC(C)CCCC(C)C1CCC2C3=CC[C@H]4C[C@@H](O)CC[C@]4(C)C3CC[C@@]21C (stereo partly specified) | > 4 mM (inactive) |
| CC1=C2C(O)C(=O)OC3CC4C(C)(C)C(=O)C=C[C@]4(C)C(CC1)[C@]23C (stereo partly specified) | > 4 mM (inactive) |
| COC(=O)C1=C(C)N(c2cccc(C(C)=O)c2)C(=O)C1 | > 4 mM (inactive) |
| COc1ccc2c(c1)[n+](=O)c(C(C)=O)c(C)n2[O-] | > 4 mM (inactive) |

| Structure (SMILES) | Kd |
| --- | --- |
| C#CCCCCCCCCCCCC(=O)CC(O)COC(C)=O (stereo unspecified) | > 4 mM (inactive) |
| Nc1nc2ccccc2n1CCN1CCCC1 | > 4 mM (inactive) |
| O=c1cc(-c2ccccc2)oc2cc(O)cc(O)c12 | > 4 mM (inactive) |
| COc1cc(NC(=O)c2ccccc2)c(C)cc1N | > 4 mM (inactive) |
| NCc1ccc(S(=O)(=O)O)cc1 | > 4 mM (inactive) |
| COc1cccc(Oc2ccc(N)cc2)c1 | > 4 mM (inactive) |
| N#Cc1cc2c(nc1SCc1ccncc1)CCC2 | > 4 mM (inactive) |
| O=C(O)c1cn(-c2ccccc2)nc1-c1ccncc1 | > 4 mM (inactive) |
| N[C@@H](Cc1ccc(O)c(O)c1)C(=O)O | > 4 mM (inactive) |
| O=C(O)C1CC(C2CCCCN2)CN2CCCCC12 (stereo unspecified) | > 4 mM (inactive) |
| CC(=O)NC12CC3CC(CC(O)(C3)C1)C2 | > 4 mM (inactive) |
| COC(=O)C[C@@H]1C2(C)C(=O)[C@@H](CC3=C4C=C(OC)O[C@@H](c5ccoc5)[C@]4(C)CCC32)[C@H](O)C1(C)C (stereo partly specified) | > 4 mM (inactive) |
| O=C1C2C3C=CC(C3)C2C(=O)N1c1cccnc1 (stereo unspecified) | > 4 mM (inactive) |
| O=C(Nc1ccccc1)C(=O)NC1CC1 | > 4 mM (inactive) |
| Nc1ccc(Oc2ccccc2)nc1 | > 4 mM (inactive) |
| CC1(C)CC2(C)N(N)C(=O)CN2C(=S)N1 (stereo unspecified) | > 4 mM (inactive) |
| O=C(O)Cn1nc(-c2ccccc2)c2ccccc2c1=O | > 4 mM (inactive) |
| CNC(=O)c1ccc([N+](=O)[O-])cc1Cl | > 4 mM (inactive) |
| Cn1c2c(c(=O)n(C)c1=O)CN(Cc1ccco1)CN2 | > 4 mM (inactive) |
| O=C(Cn1cncn1)c1ccc(F)c(F)c1 | > 4 mM (inactive) |
| C/C=C(/C)C(=O)O[C@@H]1Cc2c(ccc3ccc(=O)oc23)OC1(C)C | > 4 mM (inactive) |
| CON(C)C(=O)Nc1ccc(Cl)cc1 | > 4 mM (inactive) |
| Fc1cccc(F)c1CN1CCN(c2ncccn2)CC1 | > 4 mM (inactive) |
| Nc1ccc2c(c1)CCCC2=O | > 4 mM (inactive) |
| COc1ccc(C2(C)CC(=O)NC2=O)cc1 (stereo unspecified) | > 4 mM (inactive) |

| Structure (SMILES) | Kd |
| --- | --- |
| Cc1cc(C)c(C#N)c(N2CCCC2)n1 | > 4 mM (inactive) |
| Cc1ccc(NC(=O)C2CCCNC2=O)nc1 (stereo unspecified) | > 4 mM (inactive) |
| c1cncc(Cn2cccc2)c1 | > 4 mM (inactive) |
| CN(C)c1ccc(CNn2cnnc2)cc1 | > 4 mM (inactive) |
| CN1C(=O)/C(=C\c2ccc[nH]2)SC1=S | > 4 mM (inactive) |
| CC(=O)Oc1cc(OC(C)=O)c2c(c1)O[C@H](c1ccc(OC(C)=O)c(OC(C)=O)c1)[C@H](OC(C)=O)C2 | > 4 mM (inactive) |
| O=C1COc2cc(O)ccc21 | > 4 mM (inactive) |
| O=C(O)CSCC(=O)Nc1cccc(O)c1 | > 4 mM (inactive) |
| Nc1nc(NCc2ccco2)nn1-c1ccccc1 | > 4 mM (inactive) |
| COc1cc2c(cc1OC)[C@@H]1C(=O)c3ccc4c(c3O[C@@H]1CO2)C=CC(C)(C)O4 | > 4 mM (inactive) |
| COC(=O)C[C@H]1C(C)(C)C(=O)[C@@H]2CC3C4=CC(=O)O[C@@H](c5ccoc5)[C@]4(C)CCC3C1(C)C2=O (stereo partly specified) | > 4 mM (inactive) |
| Cc1cc(C)c(-c2cc(C(F)(F)F)no2)c(=O)[nH]1 | > 4 mM (inactive) |
| Nc1cccc(NC(=O)c2ccco2)c1 | > 4 mM (inactive) |
| Cc1cc(O)cc(O)c1C(=O)O | > 4 mM (inactive) |
| O=S1(=O)CCC(NC(=S)N2CCOCC2)C1 (stereo unspecified) | 0.0474 mM |
| CC(C)c1ccc(CCC(=O)N2CCOCC2)cc1 | 0.0023 mM |
| O=c1[nH]nnc2sc3c(c12)CCCC3 | > 4 mM (inactive) |
| O=C1NC(=O)/C(=C\c2ccco2)S1 | > 4 mM (inactive) |
| O=C1CCC(C(=O)NCc2ccc(Cl)cc2)N1 (stereo unspecified) | > 4 mM (inactive) |
| O=C(Nc1cccnc1)c1cnn2cccnc12 | > 4 mM (inactive) |
| CC(=O)c1cccc(NC(=O)NN2CCOCC2)c1 | > 4 mM (inactive) |
| NC(=O)c1ccsc1NC(=O)c1cccnc1 | > 4 mM (inactive) |
| O=C(NCN1CCOCC1)c1cnccn1 | > 4 mM (inactive) |
| CCN(CC)c1nc2n(c(=O)n1)CCO2 | > 4 mM (inactive) |
| O=C(O)c1ccc2c(c1)OCCO2 | > 4 mM (inactive) |

| Structure (SMILES) | Kd |
| --- | --- |
| COC(=O)N1CCN(c2ccc(C(C)=O)cc2)CC1 | > 4 mM (inactive) |
| CC(C)CCCC1(C)C=Cc2c(O)c3c(c(CCC(C)C)c2O1)OC12C(CC4CC1C(C)(C)OC2(CCC(C)C(=O)O)C4O)C3=O (stereo unspecified) | > 4 mM (inactive) |
| CC1C[C@H]2CC(=O)[C@H]3CCCN4CCC[C@H]2[C@]34C1 (stereo partly specified) | > 4 mM (inactive) |
| CCOC(=O)N1CCCC1c1cccnc1 (stereo unspecified) | > 4 mM (inactive) |
| Cc1cc(=O)[nH]c(NCC(=O)O)n1 | > 4 mM (inactive) |
| O=C(Nc1ccon1)c1csc2ccccc12 | > 4 mM (inactive) |
| CC(C)=CCc1c(O)cc(C)oc1=O | > 4 mM (inactive) |
| OCCNC(=S)Nc1ccccc1 | > 4 mM (inactive) |
| CC(C)CCCC(C)C1CCC2C3CC(=O)[C@H]4C[C@@H](O)CC[C@]4(C)C3CC[C@]12C (stereo partly specified) | > 4 mM (inactive) |
| Nc1nc2ncc(CNc3ccc(C(=O)N[C@@H](CCC(=O)O)C(=O)O)cc3)nc2c(=O)[nH]1 | > 4 mM (inactive) |
| OCC1CN(Cc2ccccc2)CCO1 (stereo unspecified) | > 4 mM (inactive) |
| O=C1CCC(=O)N1c1nc2ccccc2s1 | > 4 mM (inactive) |
| C=C[C@H]1CN2CC[C@H]1C[C@H]2[C@H](O)c1ccnc2ccccc12 | > 4 mM (inactive) |
| CSc1ccccc1NC(=O)c1ccc(C)o1 | > 4 mM (inactive) |
| O=[N+]([O-])c1cccc2c1nnn2C(CO)OCCO (stereo unspecified) | > 4 mM (inactive) |
| CS(=O)(=O)N/N=C/c1cccs1 | > 4 mM (inactive) |
| O=C(COc1ccccc1O)NCCO | > 4 mM (inactive) |
| CC1CCN(S(=O)(=O)N(C)C)CC1 | > 4 mM (inactive) |
| O=C(O)CSc1nnc(-c2cccs2)o1 | > 4 mM (inactive) |
| Cc1c(C(=O)Nc2cnccn2)oc2ccccc12 | > 4 mM (inactive) |
| CCNC(=O)CC[C@H](N)C(=O)O | > 4 mM (inactive) |
